Measured values taken from patent US20040170581A1, “Cosmetic agents” (priority 2001, published 2004).

Assays:
[1] = tested on: G6PDH (glucose 6 phosphate dehydrogenase); assay: G6PDH activity on human dermal fibroblasts; format: cell-based; settings: control = 100, 8 assays
Text: This test was used to determine stimulation of the enzyme G6PDH (glucose 6 phosphate dehydrogenase) which counteracts the ageing process of human skin. G6PDH catalyzes the first step of the “pentose shunt” (also known as hexose monophosphate shunt or HMP shunt). The first step, the transformation of glucose-6-phosphate (G6P) into 6-phosphogluconate (6GP) by G6PDH, needs the coenzyme NADP which in turn is converted into NADPH2. This reduced form of the coenzyme catalyzes many enzymatic reactions and also glutathione recycling and lipid synthesis.
Determination of the G6PDH activity (glucose 6 phosphate dehydrogenase) was carried out by the microprocess described by Garidelli de Quincenet in Annual Dermatol. Venereol. 107 (12), 1163-1170 (1980). The DNA content was determined by the method described by Desaulniers in Toxic. In vitro 12 (4), 409-422 (1998) using in vitro cultures of human dermal fibroblasts. […]

human keratinocytes = assay: Cell protection against UV-B rays (cellular DNA, LDH release); format: cell-based; settings: UV-B 50 mJ/cm^2, conc. 0.01 % w/v
Description: UV-B was selected as the stress factor because the rays produce cutaneous inflammation ([…]) by activating enzymes that release arachidonic acid, such as phospholipase A2 (PLA2) for example. […] The influence of UV-B rays on keratinocytes was determined in vitro through the release of cytoplasmatic enzymes, such as LDH (lactate dehydrogenase) for example, which runs parallel to the cell damage and the formation of PGE2. To carry out the test, a fibroblast culture was mixed with foetal calf serum and inoculated with the test substances 2 days later. After incubation for 36 h at 37° C. and a CO2 level of 5% by vol., the nutrient medium was replaced by an electrolyte solution and the fibroblasts were damaged with a particular dose of UV-B (50 mJ/cm^2). The quantity of keratinocytes was determined after trypsination via a cell counter while the LDH concentration was enzymatically determined.

[2] = tested on: superoxide anions O2° produced by lipoxygenase; assay: Anti-free radical test with superoxide anions produced by lipoxygenase; format: biochemical
Description: Activity against free radicals was determined by a biochemical test with a reactive oxygen species (ROS), the so-called superoxide anion (O2°). Superoxide anions come from xanthine oxidase and lipoxygenase activities. Xanthine oxidase (XOD) is an enzyme which is activated during oxidative stress and catalyzes the release of O2° during the degradation of hypoxanthine (HX) which is produced in excess in the event of a disturbance to the energy cell metabolism. O2° is then reacted spontaneously or by superoxide dismutase (SOD) to form hydrogen peroxide (H2O2) which in turn is a source of HO radicals which continue reacting in the Fenton reaction. O2° released during an inflammation process is formed from arachidonic acid by the lipoxygenase activity of leucocytes during the leucotriene synthesis (MacCord, M., Chabot Fletcher, M., Breton, J., Marshall, L.A.; Journal of Investigative Dermatology, 1994, Vol. 102, pp. 980-986; Bouclier, M., Hensby C.N.; Annales de Dermatologie & de V{acute over (en)}reologie, 1986, Vol. 113, pp. 1289-1293).
The enzymatic system arachidonic acidlipoxygenase leads during the synthesis of leucotrienes to the formation of O2° which can be determined by luminescence via luminol. Activity against free radicals is greater, the more the luminescence is suppressed.

## CC1=C(/C=C/C(C)=C/C=C/C(C)=C/C(=O)O)C(C)(C)CCC1 [Retinoic acid]
[1]; concentration 0.0003 mM
  Level of G6PDH activity on day 6 (%/against control) Average value: 120 %/against control
[1]; concentration 0.001 mM
  Level of G6PDH activity on day 6 (%/against control) Average value: 128 %/against control

## O=C1O[C@H]([C@@H](O)CO)C(O)=C1O [ascorbic acid]
Human keratinocytes; blank with UV-B = 100
  LDH released: 50 %-rel.
Human keratinocytes; blank without UV-B = 100, blank with UV-B = 29
  Cellular DNA: 48 %-rel.

## O=C(O)/C=C/c1ccc(O)c(O)c1 [Caffeic acid]
[2]; concentration 0.00002 % w/v
  % Inhibition: 16%
[2]; concentration 0.0002 % w/v
  % Inhibition: 54%
